Measurements reported in patent US12535483B2, “Norovirus-binding peptide” (Kao Corporation, priority 2019, dated 2026).
pKd: −log10 of the molar value.

Legend:
GII.17 VLP = test: KD value by bio-layer interferometry (BLI, BLItz), peptide on SA chip, GII.17 VLP; format: binding, norovirus GII.17 Saitama strain; conditions: for pKd: GII.17 VLP 1 and 0.1 mg/mL, 100 μM peptide bound to SA chip, KD calculated from Ka and Kd values; for ka / kd: GII.17 VLP; for ka: association 90 sec; for kd: dissociation in PBS 60 sec
Protocol: (§1) <Calculation of KD Value by Bio-Layer Interferometry: BLI Method>
(§2) The apparatus used was BLItz™ (manufactured by ForteBio). The tip of SA chip (manufactured by ForteBio) was kept in contact with purified water for 1 minute for hydration and was then kept in contact with a 1% BSA aqueous solution for 1 hour for blocking. The SA chip subjected to blocking treatment was set to the measuring unit of the BLItz™ main body, and measurement was performed according to the program shown in Table 14. The peptides of SEQ ID NOs: 43, 48, 52, 59, 131, 143, 150, 154, 155, 156, 163, and 172 were used, and the concentration was adjusted to 100 µM. The concentrations of each of the GII.3 and GII.17 VLPs were adjusted to 1 and 0.1 mg/mL. The measurement data were analyzed using the attached software, and the KD value was calculated based on the Ka and Kd values.

GII.3 VLP = test: KD value by bio-layer interferometry (BLI, BLItz), peptide on SA chip, GII.3 VLP; format: binding, norovirus GII.3 TCH strain; conditions: for pKd: GII.3 VLP 1 and 0.1 mg/mL, 100 μM peptide bound to SA chip, KD calculated from Ka and Kd values; for ka / kd: GII.3 VLP; for ka: association 90 sec; for kd: dissociation in PBS 60 sec
Protocol: as §1, §2

| Sequence | pKd (GII.17 VLP) | ka (GII.17 VLP) [M⁻¹ s⁻¹] | kd (GII.17 VLP) [s⁻¹] | pKd (GII.3 VLP) | ka (GII.3 VLP) [M⁻¹ s⁻¹] | kd (GII.3 VLP) [s⁻¹] |
| --- | --- | --- | --- | --- | --- | --- |
| KYRATICHTV [No. 52] | 7.75 | 1.29e+06 | 0.0232 | 7.86 | 747000 | 0.0103 |
| YVIRNSDRHN [No. 43] | 3.63 | 822 | 0.192 | 7.17 | 1.18e+06 | 0.0793 |
| GCVGDLYCSA [No. 172] | – | – | – | 4.16 | 189 | 0.0131 |
| YRRSKSEIFV [No. 59] | 6.42 | 134000 | 0.0511 | 8.05 | 805000 | 0.00714 |
| SVMVTRSLFG [No. 163] | – | 110000 | 0.0185 | 8.12 | 1.03e+06 | 0.00786 |
| NFRVPIRFTH [No. 131] | – | – | – | 3.80 | 1660 | 0.262 |
| ECMGRRWMSS [No. 154] | 6.20 | 49500 | 0.00205 | 6.91 | 141000 | 0.0173 |
| VVGFGRRSLF [No. 156] | 3.63 | 398 | 0.0931 | 5.97 | 67300 | 0.0713 |
| YVVASKSNRL [No. 143] | – | – | – | 7.87 | 325000 | 0.0044 |
| VELFLLTSSC [No. 155] | – | – | – | 3.10 | 115 | 0.0926 |
| VCVDNDISMS [No. 150] | 2.60 | 102 | 0.255 | 6.36 | 27000 | 0.0118 |
| ICSSWFPSVH [No. 48] | 7.12 | 1.28e+06 | 0.0978 | 7.52 | 810000 | 0.0246 |
